Measured values from patent US4411890A, “Synthetic peptides having pituitary growth hormone releasing activity” (Beckman Instruments, Inc., priority 1981, dated 1983).
Where a SMILES comes first, the peptide text is derived from it.

Key:
[1] = test system: Female rats of The CD-1 strain; assay: In vivo growth hormone release study (subcutaneous injection, serum GH by RIA); parameters: species or system rat; details: serum GH about 15 minutes after injection, 21 day old female rats, mean ± SEM
Method: Female rats of The CD-1 strain were housed in a constant temperature room at 24° C. with 14 hours light and 10 hours darkness. The rats were fed Purina brand rat chow ab libitum. All studies were started between 0800 and 1000 hours. Each female rat (21 days old; eight rats per dosage level shown in Table XXVI) was injected subcutaneously with a desired dosage of the peptide of Example 6. Approximately 15 minutes after injection, the rat was guillotined. A blood sample was collected from the guillotined rat. The blood sample was centrifuged and a serum sample was collected therefrom. Each serum sample was assayed for GH, in duplicate, by a standard radioimmunoassay (RIA).

pituitaries = assay: In vitro growth hormone release study (incubated rat pituitaries, GH by RIA); assay type: cell-based; details: GH released at I3, I4 (I5) minus P2, mean ± SEM
Method: Female rats of the CD-1 strain were housed in a constant temperature room at 24° C. with 14 hours light and 10 hours darkness. The rats were fed Purina brand rat chow ab libitum. All studies were started between 0800 and 1000 hours.
Pituitaries were removed from 20 day old female rats. In each polytetrafluoroethylene beaker (10 ml) was incubated two pituitaries at 36° C. in 1 ml of lactated Ringer's solution in a Dubnoff Shaker (90 cycles/min.). All medium in each beaker was removed each hour (e.g., P1, P2, I3, I4, I5) and then fresh medium was added back to each beaker. Each medium removed was assayed for GH, in duplicate, by a standard radioimmunoassay (RIA).
The growth hormone agonist of Example 1 was not added to the incubation mediums employed during the first hour of the incubation period (P1) or to the incubation mediums employed during the second hour of the incubation period (P2). The growth hormone agonist of Example 1 was dissolved in dimethylsulfoxide (DMSO; 10:1, agonist:DMSO), added to each incubation medium employed during the third hour of the incubation period (I3), to each medium employed during the fourth hour of the incubation period (I4), and, when performed, to each medium employed during the fifth hour of the incubation period (I5). The release of growth hormone was recorded as ΔGH and calculated by subtracting the amount of GH released at P2 from that released at I3, I4, and, when performed, I5. The agonist activity was determined from the release at I3, I4, and, when performed, I5. The mean of the ΔGH values obtained from the three beakers per dosage level measured at I3, I4, and, when performed, I5 are set forth in Table VI.

[2] = dosage 1.0 μg/ml serum (so in the source)
[3] = dosage 3.0 μg/ml serum (so in the source)
[4] = dosage 10.0 μg/ml serum (so in the source)
[5] = dosage 1 ng/ml incubation medium
[6] = dosage 3 ng/ml incubation medium
[7] = dosage 10 ng/ml incubation medium
[8] = dosage 30 ng/ml incubation medium
[9] = dosage 100 ng/ml incubation medium
[10] = dosage 1,000 ng/ml incubation medium
[11] = dosage 10,000 ng/ml incubation medium
[12] = dosage 300 ng/ml incubation medium
[13] = dosage 3,000 ng/ml incubation medium
[14] = dosage 30,000 ng/ml incubation medium

Row | Molecule | ΔGH (pituitaries; [7]) | ΔGH (pituitaries; [8]) | ΔGH (pituitaries; [9]) | ΔGH (pituitaries; [10]) | also measured
1 | C[C@H](NC(=O)[C@@H](Cc1c[nH]c2ccccc12)NC(=O)[C@@H](N)Cc1c[nH]cn1)C(=O)N[C@@H](Cc1c[nH]c2ccccc12)C(=O)N[C@H](Cc1ccccc1)C(=O)N[C@@H](CCCNC(=N)N)C(N)=O [H2 -His-D-Trp-Ala-Trp-D-Phe-Arg-NH2] (HELM PEPTIDE1{H.[dW].A.W.[dF].R.[am]}$$$$V2.0) | 2,064 ± 346 ng/ml incubation medium | – | – | – | ΔGH [1, 2]: 9.2 ± 3.4 ng/ml subcutaneous; ΔGH [1, 3]: 32.2 ± 5.5 ng/ml subcutaneous; ΔGH [1, 4]: 87.5 ± 31 ng/ml subcutaneous; ΔGH ([1]; dosage 30.0 μg/ml serum (so in the source)): 31.1 ± 3.4 ng/ml subcutaneous; ΔGH (pituitaries; [5]): 805 ± 152 ng/ml incubation medium; ΔGH (pituitaries; [6]): 997 ± 249 ng/ml incubation medium
2 | C[C@H](NC(=O)[C@@H](Cc1c[nH]c2ccccc12)NC(=O)[C@@H](N)Cc1c[nH]cn1)C(=O)N[C@@H](Cc1c[nH]c2ccccc12)C(=O)N[C@H](Cc1ccccc1)C(=O)N[C@@H](CCC(N)=O)C(N)=O [H2 -His-D-Trp-Ala-Trp-D-Phe-Gln-NH2] (HELM PEPTIDE1{H.[dW].A.W.[dF].Q.[am]}$$$$V2.0) | 275 ± 66 ng/ml incubation medium | – | – | – | ΔGH [1, 2]: 1.4 ± 0.9 ng/ml subcutaneous; ΔGH [1, 3]: 3.8 ± 2.1 ng/ml subcutaneous; ΔGH [1, 4]: 32.1 ± 11.4 ng/ml subcutaneous; ΔGH (pituitaries; [5]): 5 ± 136 ng/ml incubation medium; ΔGH (pituitaries; [6]): 140 ± 168 ng/ml incubation medium
3 | C[C@H](NC(=O)[C@@H](Cc1c[nH]c2ccccc12)NC(=O)[C@@H](N)Cc1c[nH]cn1)C(=O)N[C@@H](Cc1c[nH]c2ccccc12)C(=O)N[C@H](Cc1ccccc1)C(=O)N[C@@H](CCCN)C(N)=O [H2 -His-D-Trp-Ala-Trp-D-Phe-Orn-NH2] (HELM PEPTIDE1{H.[dW].A.W.[dF].[Orn].[am]}$$$$V2.0) | 356 ± 92 ng/ml incubation medium | – | – | – | ΔGH (pituitaries; [5]): -295 ± 93 ng/ml incubation medium
4 | NCCCC[C@H](NC(=O)[C@@H](Cc1ccccc1)NC(=O)[C@H](Cc1c[nH]c2ccccc12)NC(=O)[C@H](CO)NC(=O)[C@@H](Cc1c[nH]c2ccccc12)NC(=O)[C@@H](N)Cc1c[nH]cn1)C(N)=O [H2 -His-D-Trp-Ser-Trp-D-Phe-Lys-NH2] (HELM PEPTIDE1{H.[dW].S.W.[dF].K.[am]}$$$$V2.0) | 161 ± 157 ng/ml incubation medium | 705 ± 149 ng/ml incubation medium | – | – | –
5 | CC(C)[C@H](NC(=O)[C@@H](Cc1c[nH]c2ccccc12)NC(=O)[C@@H](N)Cc1c[nH]cn1)C(=O)N[C@@H](Cc1c[nH]c2ccccc12)C(=O)N[C@H](Cc1ccccc1)C(=O)N[C@@H](CCCCN)C(N)=O [H2 -His-D-Trp-Val-Trp-D-Phe-Lys-NH2] (HELM PEPTIDE1{H.[dW].V.W.[dF].K.[am]}$$$$V2.0) | – | -118 ± 65 ng/ml incubation medium | – | – | –
6 | C[C@H](NC(=O)[C@@H](Cc1c[nH]c2ccccc12)NC(=O)[C@@H](N)Cc1ccc(O)cc1)C(=O)N[C@@H](Cc1c[nH]c2ccccc12)C(=O)N[C@H](Cc1ccccc1)C(=O)N[C@@H](CC(N)=O)C(N)=O [H2 -Tyr-D-Trp-Ala-Trp-D-Phe-Asn-NH2] (HELM PEPTIDE1{Y.[dW].A.W.[dF].N.[am]}$$$$V2.0) | – | 244 ng/ml incubation medium | 528 ± 184 ng/ml incubation medium | 1,670 ± 126 ng/ml incubation medium | –
7 | C[C@H](NC(=O)[C@@H](Cc1c[nH]c2ccccc12)NC(=O)[C@@H](N)Cc1ccc(O)cc1)C(=O)N[C@@H](Cc1c[nH]c2ccccc12)C(=O)N[C@H](Cc1ccccc1)C(=O)N[C@@H](CCC(N)=O)C(N)=O [H2 -Tyr-D-Trp-Ala-Trp-D-Phe-Gln-NH2] (HELM PEPTIDE1{Y.[dW].A.W.[dF].Q.[am]}$$$$V2.0) | 240 ng/ml incubation medium | – | 2,000 ± 523 ng/ml incubation medium | 4,235 ± 785 ng/ml incubation medium | ΔGH (pituitaries; [11]): 4,141 ± 576 ng/ml incubation medium
8 | C[C@H](NC(=O)[C@@H](Cc1c[nH]c2ccccc12)NC(=O)[C@@H](N)Cc1ccc(O)cc1)C(=O)N[C@@H](Cc1c[nH]c2ccccc12)C(=O)N[C@H](Cc1ccccc1)C(=O)N[C@@H](CCC(N)=O)C(=O)O [H2 -Tyr-D-Trp-Ala-Trp-D-Phe-Gln-OH] (HELM PEPTIDE1{Y.[dW].A.W.[dF].Q}$$$$V2.0) | – | – | 753 ± 559 ng/ml incubation medium | 2,759 ± 515 ng/ml incubation medium | ΔGH (pituitaries; [11]): 3,994 ± 1,214 ng/ml incubation medium
9 | C[C@H](NC(=O)[C@@H](Cc1c[nH]c2ccccc12)NC(=O)[C@@H](N)Cc1ccc(O)cc1)C(=O)N[C@@H](Cc1c[nH]c2ccccc12)C(=O)N[C@H](Cc1ccccc1)C(=O)N[C@@H](CCC(=O)O)C(N)=O [H2 -Tyr-D-Trp-Ala-Trp-D-Phe-Glu-NH2] (HELM PEPTIDE1{Y.[dW].A.W.[dF].E.[am]}$$$$V2.0) | – | 224 ng/ml incubation medium | – | – | ΔGH (pituitaries; [12]): 472 ± 104 ng/ml incubation medium; ΔGH (pituitaries; [13]): 1,404 ± 179 ng/ml incubation medium; ΔGH (pituitaries; [14]): 1,909 ± 270 ng/ml incubation medium
10 | CSCC[C@H](NC(=O)[C@@H](Cc1ccccc1)NC(=O)[C@H](Cc1c[nH]c2ccccc12)NC(=O)[C@H](C)NC(=O)[C@@H](Cc1c[nH]c2ccccc12)NC(=O)[C@@H](N)Cc1ccc(O)cc1)C(N)=O [H2 -Tyr-D-Trp-Ala-Trp-D-Phe-Met-NH2] (HELM PEPTIDE1{Y.[dW].A.W.[dF].M.[am]}$$$$V2.0) | – | 456 ± 151 ng/ml incubation medium | – | 1,832 ± 441 ng/ml incubation medium | ΔGH (pituitaries; [12]): 1,260 ± 245 ng/ml incubation medium
11 | C[C@H](NC(=O)[C@@H](Cc1c[nH]c2ccccc12)NC(=O)[C@@H](N)Cc1ccc(O)cc1)C(=O)N[C@@H](Cc1c[nH]c2ccccc12)C(=O)N[C@H](Cc1ccccc1)C(=O)N[C@@H](Cc1ccccc1)C(N)=O [H2 -Tyr-D-Trp-Ala-Trp-D-Phe-Phe-NH2] (HELM PEPTIDE1{Y.[dW].A.W.[dF].F.[am]}$$$$V2.0) | – | 10 ± 57 ng/ml incubation medium | – | – | ΔGH (pituitaries; [12]): 330 ng/ml incubation medium; ΔGH (pituitaries; [13]): 710 ng/ml incubation medium; ΔGH (pituitaries; [14]): 1,484 ± 135 ng/ml incubation medium
12 | C[C@H](NC(=O)[C@@H](Cc1c[nH]c2ccccc12)NC(=O)[C@@H](N)Cc1ccc(O)cc1)C(=O)N[C@@H](Cc1c[nH]c2ccccc12)C(=O)N[C@H](Cc1ccccc1)C(=O)N[C@H](C(N)=O)[C@@H](C)O [H2 -Tyr-D-Trp-Ala-Trp-D-Phe-Thr-NH2] (HELM PEPTIDE1{Y.[dW].A.W.[dF].T.[am]}$$$$V2.0) | 94 ± 69 ng/ml incubation medium | – | 650 ± 320 ng/ml incubation medium | 2,167 ± 591 ng/ml incubation medium | ΔGH (pituitaries; [11]): 2,957 ± 834 ng/ml incubation medium
13 | NC(=O)CC[C@H](NC(=O)[C@@H](Cc1ccccc1)NC(=O)[C@H](Cc1c[nH]c2ccccc12)NC(=O)CNC(=O)[C@@H](Cc1c[nH]c2ccccc12)NC(=O)[C@@H](N)Cc1ccc(O)cc1)C(N)=O [H2 -Tyr-D-Trp-Gly-Trp-D-Phe-Gln-NH2] (HELM PEPTIDE1{Y.[dW].G.W.[dF].Q.[am]}$$$$V2.0) | – | 103 ± 248 ng/ml incubation medium | 167 ng/ml incubation medium | 1,092 ng/ml incubation medium | –
14 | H2 -Tyr-D-Trp-Ala-Trp-D-Phe-Lys-NH2 | – | 1,346 ± 328 ng/ml incubation medium | – | – | ΔGH (pituitaries; [12]): 2,160 ± 166 ng/ml incubation medium; ΔGH (pituitaries; [13]): 1,630 ± 135 ng/ml incubation medium; ΔGH (pituitaries; [14]): 1,318 ± 247 ng/ml incubation medium
